In assay [1] the target is T1, ORL1 receptor (Homo sapiens, UniProt P41146). The assay can be described thus: ORL1 reporter gene assay, agonist test (inhibition of cAMP-dependent luciferase formation). Type of assay: cell-based. On the set-up: A cDNA coding for the ORL1 receptor was cloned using standard methods from THP-1 cells; expressed in transfected cells; host or cells: CHO-K1/pSE66/K9/pZeoORL17/K21. Conditions: agonist potency: concentration at semi-maximum inhibition of luciferase formation; CHO-K1 cells expressing human ORL1. From the text: (§1) The morphinan derivatives of the general formula I according to the invention were identified with a reporter gene system as ORL1 receptor agonists or as ORL1 receptor antagonists. This reporter gene system is based on the expression of the human ORL1 receptor in CHO-K1 cells, which carry a cAMP-sensitive luciferase gene (Wnendt et al., Regulatory Peptides, 80, 1999, p. 127 the entire disclosure of which is incorporated herein by reference). The formation of cAMP is induced by forskolin, an adenylate cyclase activator.
T1 sequence (P41146 whole entry): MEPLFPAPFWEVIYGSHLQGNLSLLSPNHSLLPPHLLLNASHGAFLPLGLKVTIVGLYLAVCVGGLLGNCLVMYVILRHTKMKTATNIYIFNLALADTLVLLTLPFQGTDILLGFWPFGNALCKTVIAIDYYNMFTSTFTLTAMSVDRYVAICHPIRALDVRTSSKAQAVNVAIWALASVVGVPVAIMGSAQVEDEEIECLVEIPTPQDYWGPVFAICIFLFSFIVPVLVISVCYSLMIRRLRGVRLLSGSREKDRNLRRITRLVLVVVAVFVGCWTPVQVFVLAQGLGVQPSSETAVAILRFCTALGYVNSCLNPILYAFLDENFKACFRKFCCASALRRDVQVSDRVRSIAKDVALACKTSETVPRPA
Also, they inhibit in a concentration-dependent manner luciferase formation due to the binding to the ORL1 receptor. The potency, expressed as the IC50 value, indicates the concentration at which the semi-maximum effect of the agonist is reached.
(§2) The reporter gene system was constructed as follows:
A cDNA coding for the ORL1 receptor was cloned using standard methods from THP-1 cells (European Cell Culture Collection, Porton Down, Great Britain) of a human monocyte cell line and integrated into the plasmid pZeoSV (Invitrogen, Leek, Netherlands). This plasmid, pZeoORL17, was used for the transfection of a cell line, CHO-K1/pSE66/K9, that contains the cAMP reporter plasmid pSE66. […]
Background: A reporter such as luciferase makes a cellular process visible.

Assay [2] concerns the target T1, ORL1 receptor. The assay can be described thus: Receptor binding assay with 3H-nociceptin/orphanin FQ using membranes of recombinant CHO-ORL1 cells. Further details: expressed in transfected cells; host or cells: recombinant CHO-ORL1 cells (membranes). The procedure: Furthermore a receptor binding assay with ^3H-nociceptin/ orphanin FQ was carried out with the compounds according to the invention using membranes of recombinant CHO-ORL1 cells. This test system was implemented according to the method proposed by Ardati et al. (Mol. Pharmacol., 51, 1997, pp. 816-824). The concentration of ^3H-N/OFQ in these experiments was 0.5 nM. The binding assays were performed in each case with 20 μg of membrane protein per 200 μl of batch in 50 mM of Hepes, pH 7.4, 10 mM MgCl2 and 1 mM EDTA. The binding to the ORL1 receptor was determined using in each case 1 mg of WGA-SPA beads (Amersham-Pharmacia, Freiburg) by incubating the batch for one hour at room temperature followed by measurement in a Trilux scintillation counter (Wallac, Finland). The affinity is given as the Ki value.

Assay [3] concerns the target T1, ORL1 receptor. Nature of the assay: ORL1 reporter gene assay, antagonist test (cAMP-sensitive luciferase, forskolin-induced, in presence of 10 nM nociceptin/orphanin FQ). Type of assay: cell-based. On the set-up: A cDNA coding for the ORL1 receptor was cloned using standard methods from THP-1 cells; expressed in transfected cells; host or cells: CHO-K1/pSE66/K9/pZeoORL17/K21.
Excerpt: as §1
The inhibition of luciferase formation due to the agonists is lifted to the extent that the antagonist binds to the ORL1 receptor. […] The effect of the antagonists is described by the pKB value.
as §2
A cDNA coding for the ORL1 receptor was cloned using standard methods from THP-1 cells (European Cell Culture Collection, Porton Down, Great Britain) of a human monocyte cell line and integrated into the plasmid pZeoSV (Invitrogen, Leek, Netherlands). This plasmid, pZeoORL17, was used for the transfection of a cell line, CHO-K1/pSE66/K9, that contains the cAMP reporter plasmid pSE66. The plasmid pSE66 was constructed on the basis of the plasmid pMAMneo-LUC (Clontech, Palo Alto, Calif.) by replacing the RSV promoter of this plasmid by a promoter region in which six CRE elements (cAMP-responsive elements, Comb et al., Nature, 323, 1986, pp. 353-356; Montminy et al., Proc. Natl. Acad. Sci. USA, 83, 1986, pp. 6682-6686; Short et al., J. Biol. Chem., 261, 1986, pp. 9721-9726) lie upstream of a promoter. The SV40 promoter derives from the plasmid pGL2-promoter (Promega, Madison, Wis.). The promoter region constructed in this way controls in the plasmid pSE66 the expression of the luciferase gene from pMAMneo-LUC. Furthermore, pSE66 carries a G418 resistance gene under the control of a further SV40 promoter. The cell line CHO-K1 (European Cell Culture Collection, Porton Down, Great Britain) was rendered stable with pSE66 and the clone CHO-K1/pSE66/K9 was selected for the transfection with pZeoORL17. […]

Where [4] appears, read: 0.5 nM 3H-N/OFQ, CHO-ORL1 membranes, WGA-SPA beads, one hour at room temperature, read-out: Ki (nM) ORL1 Binding Assay.
Setting [5] is: read-out: PKB ORL1 Reporter Gene Assay (converted).

Where a name gives a salt, the structure may show the parent alone. Read-outs that look alike come from different tables or passages of the source.

Broadly, the IC50 is the concentration that inhibits the measured activity by half. Low values mean inhibition by little substance, high ones a need for much substance. In general, Ki refers to the equilibrium dissociation constant of an inhibitor or competing ligand from its target. “17-cyclopropylmethyl-6,7-didehydro-4,5α-epoxy-3-hydroxy-14-(methoxynaphthalene)1′-(β-methylnaphthalene)indolo-[6,7:2,′3′]-morphinan hydrochloride [Example 4]”: on ORL1 receptor [1], the IC50 is 31.2 nM. The Ki at ORL1 receptor [2] (setting [4]) amounted to 982 nM. In turn, “17-cyclopropylmethyl-6,7-didehydro-4,5α-epoxy-14-hydroxy-3-benzyloxy-1′-(p-methoxycarbonylmethylphenyl)-indolo-[6,7:2,′3′]-morphinan hydrochloride [Example 5]” showed a half-inhibitory concentration (IC50) on ORL1 receptor [1] of 25.8 nM.

As for `C=CCN1CCC23c4c5ccc(O)c4OC2c2c(c4ccccc4n2Cc2ccccc2Cl)CC3(O)C1C5` (stereo not drawn) [Example 1, 17-allyl-6,7-didehydro-4,5α-epoxy-3,14-dihydroxy-1′-(o-chlorobenzyl)indolo-[6,7:2,′3′]-morphinan hydrochloride], on ORL1 receptor [2], the inhibition constant Ki is 449 nM. Moreover, the Kb on ORL1 receptor [3] is 0.0427 µM. Consider `C=CCN1CCC23c4c5ccc(O)c4OC2c2c(c4ccccc4n2Cc2cccc(Cl)c2)CC3(OCc2cccc(Cl)c2)C1C5` (stereo not drawn) [Example 2, 17-allyl-6,7-didehydro-4,5α-epoxy-3-hydroxy-14-(m-chloromethoxyphenyl)1′-(m-chlorobenzyl)indolo[6,7:2,′3′]-morphinan hydrochloride], for which the Ki at ORL1 receptor [2] (setting [4]) turned out to be 1080 nM. The Kb on ORL1 receptor [3] (setting [5]) is 0.102 µM. In the case of `Oc1ccc2c3c1OC1c4c(c5ccccc5n4Cc4ccccc4Cl)CC4(OCc5ccccc5Cl)C(C2)N(CC2CC2)CCC314` (stereo not drawn) [Example 3, 17-cyclopropylmethyl-6,7-didehydro-4,5α-epoxy-3-hydroxy-14-(o-chloromethoxyphenyl)1′-(o-chlorobenzyl)-indolo[6,7:2,′3′]-morphinan hydrochloride], the Ki on ORL1 receptor [2] (setting [4]) came out at 718 nM. Also, the Kb on ORL1 receptor [3] (setting [5]) was 0.407 µM.

The record behind these values is patent publication US6476044B1, “Use of morphine derivatives as medicaments for the treatment of neuropathic problems” (Gruenenthal GmbH, priority 2000, dated 2002).
